Literature values as cited in patent publication US5824771A, “Cyclic CRF agonists” (The Salk Institute for Biological Studies, priority 1997, dated 1998).
Entries after “also recorded” stand apart in the source; their conditions may differ. Ends that are not written are not given here.

Columns and labels:
[1] = background statement; cited from earlier work
[2] = background statements; injected peripherally or iv, mammals; cited from earlier work
[3] = tested on: ACTH and β-endorphin secretion; conditions: background statements; in vitro and in vivo or iv; cited from earlier work

For `CC[C@H](C)[C@H](NC(=O)[C@@H](NC(=O)[C@H](CC(=O)O)NC(=O)[C@H](CC(C)C)NC(=O)[C@H](CC(C)C)NC(=O)[C@H](CC(C)C)NC(=O)[C@H](CCCNC(=N)N)NC(=O)[C@H](CC(N)=O)NC(=O)[C@H](CC(N)=O)NC(=O)[C@H](C)NC(=O)[C@H](C)NC(=O)[C@H](CCC(N)=O)NC(=O)[C@H](CCC(N)=O)NC(=O)[C@H](CCCCN)NC(=O)[C@H](CCC(=O)O)NC(=O)[C@H](CCCCN)NC(=O)[C@H](CCC(=O)O)NC(=O)[C@H](CCC(N)=O)NC(=O)[C@H](CCCCN)NC(=O)[C@H](CCC(=O)O)NC(=O)[C@@H](NC(=O)[C@H](CCC(=O)O)NC(=O)[C@@H](NC(=O)[C@H](CCSC)NC(=O)[C@H](CCCCN)NC(=O)[C@H](CCCNC(=N)N)NC(=O)[C@H](CC(C)C)NC(=O)[C@H](CC(C)C)NC(=O)[C@H](CCC(=O)O)NC(=O)[C@H](CC(C)C)NC(=O)[C@H](CO)NC(=O)[C@H](CC(C)C)NC(=O)[C@H](CC(=O)O)NC(=O)[C@@H](NC(=O)[C@H](CO)NC(=O)[C@@H](NC(=O)[C@@H]1CCCN1C(=O)[C@@H]1CCCN1C(=O)CNC(=O)[C@@H]1CCC(=O)N1)[C@@H](C)CC)[C@@H](C)CC)[C@@H](C)CC)[C@@H](C)CC)[C@@H](C)O)C(N)=O` [sauvagine], the “gastric acid production, in words” value [1] is listed as “inhibit gastric acid production”, the “lowering of blood pressure, in words” value [2] is listed as “lower blood pressure” and the “stimulation of ACTH and β-endorphin secretion / activities, in words” value [3] is listed as “stimulate the secretion of ACTH and β-endorphin”.
For “oCRF: ovine corticotropin releasing factor, a 41-residue amidated peptide; the laboratory Standard (SQEPPISLDLTFHLLREVLEMTKADQLAQQAHSNRKLLDIA-NH2; UniProt P01142 148-188, looked up)”, the “gastric acid production, in words” value [1] is listed as “inhibit gastric acid production”, the “lowering of blood pressure, in words” value [2] is listed as “substantially lower blood pressure” and the “stimulation of ACTH and β-endorphin secretion / activities, in words” value [3] is listed as “stimulate the secretion of ACTH and β-endorphin; also recorded: stimulate ACTH and β-endorphin-like activities (β-END-Li) in vitro and in vivo”.
For “r/hCRF: rat/human CRF, a homologous amidated hentetracontapeptide; alternate standard (SEEPPISLDLTFHLLREVLEMARAEQLAQQAHSNRKLMEII-NH2; UniProt P06850 154-194, looked up)”, the “gastric acid production, in words” value [1] is given as “inhibit gastric acid production”, the “lowering of blood pressure, in words” value [2] is given as “substantially lower blood pressure” and the “stimulation of ACTH and β-endorphin secretion / activities, in words” value [3] is given as “stimulate ACTH and β-endorphin-like activities (β-END-Li) in vitro and in vivo”.
